Reference: patent US20240425523A1, “Compounds for the Degradation of EGFR Kinase” (Beigene Switzerland GMBH, priority 2023, published 2024)

Experiments:
Format in all cases: cell-based
[1] = biological target: T1, EGFR L858R (BaF3-L858R cells) (Homo sapiens, UniProt P00533, L858R); assay: Cell degradation of EGFR, HTRF assay, BaF3-L858R cells; conditions: 16 h treatment; for DC50: EGFR degradation
T1 construct: host or cells: BaF3
Experimental: (§1) BaF3-L858R (abbv. L858R) cell were purchased from Kangyuan Bochuang Biotechnology (Beijing) Co., Ltd.
(§2) H1975-#8 and BaF3-L858R cells are treated with compounds diluted in 0.1% DMSO cell culture medium on day 2, incubate for 16 h, 37° C., 5% CO2. the final concentration of compounds in all assay is start with 10 uM, 5-fold dilution, total 8 doses were included.
(§3) After 16 h treatment, for H1975-#8 cells, add 100 ul HTRF 1× lysis buffer to each well; for BaF3-L858R cells, add 20 μl 4× lysis buffer to each well; seal the plate and incubate 1 hour at room temperature on a plate shaker; Once the cells are lysed, 16 μL of cell lysate are transferred to a PE 384-well HTRF detection plate; 4 μL of pre-mixed HTRF antibodies are added to each well; Cover the plate with a plate sealer, spin 1000 rpm for 1 min, Incubate overnight at room temperature; Read on BMG PheraStar with HTRF protocol (337 nm-665 nm-620 nm).
(§4) High control=Cell group with added DMSO and without compound, indicating microplate readings without EGFR degradation;
(§5) Dmax is the maximum percentage of inhibition (degradation).
(§6) The IC50 (DC50) value of a compound can be obtained by fitting the following equation
(§7) Y=Bottom+(TOP−Bottom)/(1+((IC50/X)^hillslope))
(§8) Wherein, X and Y are known values, and IC50, Hillslope, Top and Bottom are the parameters obtained by fitting with software. […] The experimental data were fitted by calculating and analyzing with Dotmatics data analysis software.

[2] = biological target: T2, EGFR-L858R/C797S (H1975-clone #8 cells) (Homo sapiens, UniProt P00533, C797S/L858R); assay: Cell degradation of EGFR, HTRF assay, H1975-clone#8 (L858R/C797S) cells; conditions: 16 h treatment; for DC50: EGFR degradation
T2 construct: expressed in transfected cells; host or cells: H1975 (endogenous EGFR knocked out, clone #8)
Experimental: (§9) The EGFR over-expressed cells then underwent knockout, in which the EGFR targeting sgRNA was designed to only target the endogenous EGFR copies and preserve the exogenous EGFR copies. Followed by the knockout, the edited H1975 cells were seeded in 96 well plates at the concentration of 1 cell/cell, cultured for about 2 weeks to allow single clones formation. The formed clones were screened by DNA sequencing and whole exon sequencing analysis for the desired edition.
as §2, §3, §4, §5, §6, §7, §8

[3] = biological target: T3, p-EGFR L858R (BaF3-L858R cells) (Homo sapiens, UniProt P00533, L858R); assay: Cell p-EGFR inhibition assay, HTRF, BaF3-L858R cells; conditions: 16 h treatment; for Imax (%): maximum percentage of pEGFR inhibition; for IC50: pEGFR inhibition
T3 construct: host or cells: BaF3
Experimental: as §1
(§10) H1975-#23 and BaF3-L858R cells are treated with compounds diluted in 0.1% DMSO cell culture medium on day 2, incubate for 16 h, 37° C., 5% CO2. the final concentration of compounds in all assay is start with 10 uM, 5-fold dilution, total 8 doses were included.
as §3, with “for H1975-#23” for “for H1975-#8”, “add 50” for “add 100”
(§11) High control=Cell group with added DMSO and without compound, indicating microplate readings without p-EGFR inhibited.
(§12) Imax is the maximum percentage of inhibition.
(§13) The IC50 value of a compound can be obtained by fitting the following equation.
as §8

[4] = biological target: p-EGFR Del19/C797S (H1975-clone #23 cells) (Homo sapiens, UniProt P00533); assay: Cell p-EGFR inhibition assay, HTRF, H1975-clone#23 (DEL19/C797S) cells; conditions: 16 h treatment; for Imax (%): maximum percentage of pEGFR inhibition; for IC50: pEGFR inhibition
Experimental: as §9, with “cell/well,” for “cell/cell,”
as §10
as §3, with “for H1975-#23” for “for H1975-#8”, “add 50” for “add 100”
as §11, §12, §13, §8

[5] = maximum percentage of degradation

Compound | DC50 [1] | Dmax (%) [1, 5] | DC50 [2] | Dmax (%) [2, 5] | Imax (%) [3] | IC50 [3] | Imax (%) [4] | IC50 [4] | Dmax [1, 5] | Dmax [2, 5]
3-((5-(4-((S)-2-(methoxymethyl)-4-((7^1R,7^3S,E)-1^1,1^3,2^6-trimethyl-3-oxo-5^2,5^3-dihydro-1^1H,5^1H-9-oxa-4-aza-5(2,1)-benzo[d]imidazola-2(2,4)-pyridina-1(4,5)-pyrazola-7(1,3)-cyclopentanacyclononaphane-5^6-yl)piperazin-1-yl)piperidin-1-yl)-4,6-dimethylpyridin-2-yl)oxy)piperidine-2,6-dione [Example 167] | 4.72 nM | 83.25% | 4.33 nM | 88.56% | 98.09% | 6.86 nM | 102.84% | 3.01 nM | – | –
Cc1cc2cc(n1)-c1cnn(C)c1OC[C@H]1CCC(C1)CN1/C(=N/C2=O)Nc2ccc(N3CCN([C@H]4CCN(c5cc(F)c([C@H]6CCC(=O)NC6=O)c(F)c5)C[C@H]4F)CC3)cc21 (single isomer, unassigned) [Example 84] | 4.01 nM | – | 2.1 nM | – | 109.3% | 6 nM | 100.5% | 0.5 nM | 79.7% | 64.7%
Cc1cc2cc(n1)-c1cnn(C)c1OC[C@H]1CCC(C1)CN1/C(=N/C2=O)Nc2ccc(N3CCC(N4CCC(Nc5cc(F)c([C@H]6CCC(=O)NC6=O)c(F)c5)CC4)CC3)cc21 (single isomer, unassigned) [Example 116] | 1.25 nM | – | 0.61 nM | – | 98.5% | 7.9 nM | 99.4% | 0.8 nM | 85.4% | 83.4%
Cc1cc2cc(n1)-c1c(C)nn(C)c1OC[C@H]1CC[C@H](C1)CN1/C(=N/C2=O)Nc2ccc(N3CCN([C@H]4CCN(c5cc(F)c([C@H]6CCC(=O)NC6=O)c(F)c5)C4)CC3)cc21 (single isomer, unassigned) [Example 186] | 3.82 nM | – | 2.92 nM | – | 92% | 4.77 nM | 100.56% | 2.37 nM | 80% | 80.4%
Cc1cc2cc(n1)-c1c(C)nn(C)c1OC[C@H]1CC[C@H](C1)CN1/C(=N/C2=O)Nc2ccc(N3CCC(N4CCC(Nc5cc(F)c([C@H]6CCC(=O)NC6=O)c(F)c5)CC4)CC3)cc21 (single isomer, unassigned) [Example 213] | 2.18 nM | – | 0.63 nM | – | 88.33% | 0.871 nM | 98.77% | 1.69 nM | 88.3% | 82.5%
Cc1cc2cc(n1)-c1cnn(C)c1OC[C@H]1CC[C@H](C1)CN1/C(=N/C2=O)Nc2ccc(N3CCN(CC4CN(c5ccc6c(c5)CN(C5CCC(=O)NC5=O)C6=O)C4)CC3)cc21 (some centres unmarked) [Example 35, 3-(5-(3-((4-((7^1R,7^3S,E)-1^1,2^6-dimethyl-3-oxo-5^2,5^3-dihydro-1^1H,5^1H-9-oxa-4-aza-5(2,1)-benzo[d]imidazola-2(2,4)-pyridina-1(4,5)-pyrazola-7(1,3)-cyclopentanacyclononaphane-5^6-yl)piperazin-1-yl)methyl)azetidin-1-yl)-1-oxoisoindolin-2-yl)piperidine-2,6-dione] | 0.49 nM | – | 0.6 nM | – | 91.6% | 1.3 nM | 101.1% | 0.5 nM | 91.8% | 58%
Cc1cc2cc(n1)-c1cnn(C)c1OC[C@H]1CC[C@H](C1)CN1/C(=N/C2=O)Nc2ccc(N3CCN(C4CCN(c5ccc(OC6CCC(=O)NC6=O)cc5)CC4)CC3)cc21 (some centres unmarked) [Example 57, 3-(4-(4-(4-((7^1R,7^3S,E)-1^1,2^6-dimethyl-3-oxo-5^2,5^3-dihydro-1^1H,5^1H-9-oxa-4-aza-5(2,1)-benzo[d]imidazola-2(2,4)-pyridina-1(4,5)-pyrazola-7(1,3)-cyclopentanacyclononaphane-5^6-yl)piperazin-1-yl)piperidin-1-yl)phenoxy)piperidine-2,6-dione] | 3.84 nM | – | 3.14 nM | – | 101% | 10.5 nM | 97.9% | 1.2 nM | 82.6% | 58.5%
Cc1cc2cc(n1)-c1cnn(C)c1OC[C@H]1CC[C@H](C1)CN1/C(=N/C2=O)Nc2ccc(N3CCN(C4CCN(c5ccc(NC6CCC(=O)NC6=O)cc5F)CC4)CC3)cc21 (some centres unmarked) [Example 59, 3-((4-(4-(4-((7^1R,7^3S,E)-1^1,2^6-dimethyl-3-oxo-5^2,5^3-dihydro-1^1H,5^1H-9-oxa-4-aza-5(2,1)-benzo[d]imidazola-2(2,4)-pyridina-1(4,5)-pyrazola-7(1,3)-cyclopentanacyclononaphane-5^6-yl)piperazin-1-yl)piperidin-1-yl)-3-fluorophenyl)amino)piperidine-2,6-dione] | 3.18 nM | – | 2.87 nM | – | 102.5% | 7 nM | 99.6% | 0.7 nM | 85.1% | 69%
COC[C@@H]1CN(c2ccc3c(c2)N2C[C@@H]4CC[C@H](COc5c(cnn5C)-c5cc(cc(C)n5)C(=O)/N=C/2N3)C4)CCN1CC1CN(c2ccc3c(c2)CN(C2CCC(=O)NC2=O)C3=O)C1 (stereo partly drawn) [Example 63, 3-(5-(3-(((S)-4-((7^1R,7^3S,E)-1^1,2^6-dimethyl-3-oxo-5^2,5^3-dihydro-1^1H,5^1H-9-oxa-4-aza-5(2,1)-benzo[d]imidazola-2(2,4)-pyridina-1(4,5)-pyrazola-7(1,3)-cyclopentanacyclononaphane-5^6-yl)-2-(methoxymethyl)piperazin-1-yl)methyl)azetidin-1-yl)-1-oxoisoindolin-2-yl)piperidine-2,6-dione] | 0.55 nM | – | 0.61 nM | – | 103% | 0.2 nM | 100.6% | 0.2 nM | 90% | 60.9%
COC[C@H]1CN(c2ccc3c(c2)N2C[C@@H]4CC[C@H](COc5c(cnn5C)-c5cc(cc(C)n5)C(=O)/N=C/2N3)C4)CCN1C1CCN(c2cc(F)c([C@H]3CCC(=O)NC3=O)c(F)c2)CC1 [Example 64, (R)-3-(4-(4-((R)-4-((7^1R,7^3S,E)-1^1,2^6-dimethyl-3-oxo-5^2,5^3-dihydro-1^1H,5^1H-9-oxa-4-aza-5(2,1)-benzo[d]imidazola-2(2,4)-pyridina-1(4,5)-pyrazola-7(1,3)-cyclopentanacyclononaphane-5^6-yl)-2-(methoxymethyl)piperazin-1-yl)piperidin-1-yl)-2,6-difluorophenyl)piperidine-2,6-dione] | 1.07 nM | – | 1.87 nM | – | 101.9% | 3.2 nM | 101.2% | 0.7 nM | 83.3% | 70%
